Experimental data published in US11498899B2, “Nitrone herbicides” (FMC Corporation, priority 2016, dated 2022).

Experiments:
[1] = tested on: barnyardgrass (Echinochloa crus-galli); assay: Test B flooded paddy test, visual rating 0-100; conditions: Flood, 250 g ai/ha, applied to paddy water, rated after 13 to 15 days
[2] = tested on: kochia (Kochia scoparia); assay: Test A preemergence, visual injury rating 0-100; format: in vivo
[3] = tested on: ragweed (common ragweed, Ambrosia elatior); assay: Test A preemergence, visual injury rating 0-100; format: in vivo
[4] = tested on: pigweed (Amaranthus retroflexus); assay: Test A preemergence, visual injury rating 0-100; format: in vivo
[5] = tested on: foxtail, giant (giant foxtail, Setaria faberii); assay: Test A preemergence, visual injury rating 0-100; format: in vivo
[6] = tested on: ryegrass, Italian (Italian ryegrass, Lolium multiflorum); assay: Test A preemergence, visual injury rating 0-100; format: in vivo
[7] = tested on: barnyardgrass (Echinochloa crus-galli); assay: Test A preemergence, visual injury rating 0-100 (0 no effect, 100 complete control); format: in vivo
[8] = tested on: kochia (Kochia scoparia); assay: Test A postemergence, visual injury rating 0-100; format: in vivo; conditions: 0 to 100 scale
[9] = tested on: corn (Zea mays); assay: Test A postemergence, visual injury rating 0-100; format: in vivo; conditions: 0 to 100 scale
[10] = tested on: ragweed (common ragweed, Ambrosia elatior); assay: Test A postemergence, visual injury rating 0-100; format: in vivo; conditions: 0 to 100 scale
[11] = tested on: wheat (Triticum aestivum); assay: Test A postemergence, visual injury rating 0-100; format: in vivo; conditions: 0 to 100 scale
[12] = tested on: pigweed (Amaranthus retroflexus); assay: Test A postemergence, visual injury rating 0-100; format: in vivo; conditions: 0 to 100 scale
[13] = tested on: barnyardgrass (Echinochloa crus-galli); assay: Test A postemergence, visual injury rating 0-100; format: in vivo; conditions: 0 to 100 scale
[14] = tested on: galium (catchweed bedstraw, Galium aparine); assay: Test A postemergence, visual injury rating 0-100; format: in vivo; conditions: 0 to 100 scale
[15] = tested on: foxtail, giant (giant foxtail, Setaria faberii); assay: Test A postemergence, visual injury rating 0-100; format: in vivo; conditions: 0 to 100 scale
[16] = tested on: blackgrass (Alopecurus myosuroides); assay: Test A postemergence, visual injury rating 0-100; format: in vivo; conditions: 0 to 100 scale
[17] = tested on: ryegrass, Italian (Italian ryegrass, Lolium multiflorum); assay: Test A postemergence, visual injury rating 0-100; format: in vivo; conditions: 0 to 100 scale
[18] = tested on: rice (Oryza sativa); assay: Test B flooded paddy test, visual rating 0-100 (0 no effect, 100 complete control); conditions: Flood, 250 g ai/ha, applied to paddy water, rated after 13 to 15 days
[19] = tested on: ducksalad (Heteranthera limosa); assay: Test B flooded paddy test, visual rating 0-100; conditions: Flood, 250 g ai/ha, applied to paddy water, rated after 13 to 15 days

Row | SMILES | Barnyardgrass plant response rating (0 to 100 scale) [1] | Kochia plant response rating (0 to 100 scale) ([2]; 125 g ai/ha) | Kochia plant response rating (0 to 100 scale) ([2]; 500 g ai/ha) | Ragweed plant response rating (0 to 100 scale) ([3]; 125 g ai/ha) | Ragweed plant response rating (0 to 100 scale) ([3]; 500 g ai/ha) | Pigweed plant response rating (0 to 100 scale) ([4]; 125 g ai/ha) | Pigweed plant response rating (0 to 100 scale) ([4]; 500 g ai/ha) | Foxtail, Giant plant response rating (0 to 100 scale) ([5]; 125 g ai/ha) | Foxtail, Giant plant response rating (0 to 100 scale) ([5]; 500 g ai/ha) | Ryegrass, Italian plant response rating (0 to 100 scale) ([6]; 125 g ai/ha) | Ryegrass, Italian plant response rating (0 to 100 scale) ([6]; 500 g ai/ha) | Barnyardgrass plant response rating (0 to 100 scale) ([7]; 125 g ai/ha) | Barnyardgrass plant response rating (0 to 100 scale) ([7]; 500 g ai/ha) | Kochia plant response rating ([8]; 125 g ai/ha) | Kochia plant response rating ([8]; 500 g ai/ha) | Corn plant response rating ([9]; 125 g ai/ha) | Corn plant response rating ([9]; 500 g ai/ha) | Ragweed plant response rating ([10]; 125 g ai/ha) | Ragweed plant response rating ([10]; 500 g ai/ha) | Wheat plant response rating ([11]; 125 g ai/ha) | also measured
1 | CC1=[N+]([O-])C(C(=O)Nc2cccc(F)c2F)C(c2ccc(F)c(Cl)c2)C1 (racemic) [Compound 63] | 65 | 0 | 40 | 0 | 80 | 10 | 60 | 90 | 90 | 20 | 80 | 80 | 90 | 20 | 30 | 10 | 90 | 0 | 20 | 40 | Wheat plant response rating ([11]; 500 g ai/ha): 80; Pigweed plant response rating ([12]; 125 g ai/ha): 0; Pigweed plant response rating ([12]; 500 g ai/ha): 20; Barnyardgrass plant response rating ([13]; 125 g ai/ha): 50; Barnyardgrass plant response rating ([13]; 500 g ai/ha): 90; Galium plant response rating ([14]; 125 g ai/ha): 30; Galium plant response rating ([14]; 500 g ai/ha): 70; Foxtail, Giant plant response rating ([15]; 125 g ai/ha): 50; Foxtail, Giant plant response rating ([15]; 500 g ai/ha): 90; Blackgrass plant response rating ([16]; 125 g ai/ha): 70; Blackgrass plant response rating ([16]; 500 g ai/ha): 90; Ryegrass, Italian plant response rating ([17]; 125 g ai/ha): 30; Ryegrass, Italian plant response rating ([17]; 500 g ai/ha): 90; Rice plant response rating (0 to 100 scale) [18]: 0; Ducksalad plant response rating (0 to 100 scale) [19]: 30
2 | CC1=[N+]([O-])C(C(=O)Nc2cccc(F)c2F)C(c2ccc(F)c(C(F)(F)F)c2)C1 (racemic) [Compound 64] | 60 | 20 | 80 | 0 | 70 | 50 | 80 | 90 | 90 | 90 | 90 | 90 | 90 | 0 | 30 | 90 | 90 | 10 | 40 | 70 | Wheat plant response rating ([11]; 500 g ai/ha): 90; Pigweed plant response rating ([12]; 125 g ai/ha): 0; Pigweed plant response rating ([12]; 500 g ai/ha): 50; Barnyardgrass plant response rating ([13]; 125 g ai/ha): 70; Barnyardgrass plant response rating ([13]; 500 g ai/ha): 90; Galium plant response rating ([14]; 125 g ai/ha): 40; Galium plant response rating ([14]; 500 g ai/ha): 70; Foxtail, Giant plant response rating ([15]; 125 g ai/ha): 70; Foxtail, Giant plant response rating ([15]; 500 g ai/ha): 90; Blackgrass plant response rating ([16]; 125 g ai/ha): 80; Blackgrass plant response rating ([16]; 500 g ai/ha): 80; Ryegrass, Italian plant response rating ([17]; 125 g ai/ha): 70; Ryegrass, Italian plant response rating ([17]; 500 g ai/ha): 80; Rice plant response rating (0 to 100 scale) [18]: 0; Ducksalad plant response rating (0 to 100 scale) [19]: 70
3 | CC1=[N+]([O-])C(C(=O)Nc2cccc(F)c2F)C(c2cccc(Br)n2)C1 (racemic) [Compound 65] | 15 | 0 | 0 | 0 | 0 | 0 | 0 | 0 | 90 | 0 | 100 | 0 | 90 | 0 | 0 | 0 | 0 | 0 | 0 | 0 | Wheat plant response rating ([11]; 500 g ai/ha): 10; Pigweed plant response rating ([12]; 125 g ai/ha): 0; Pigweed plant response rating ([12]; 500 g ai/ha): 0; Barnyardgrass plant response rating ([13]; 125 g ai/ha): 0; Barnyardgrass plant response rating ([13]; 500 g ai/ha): 0; Galium plant response rating ([14]; 125 g ai/ha): 0; Galium plant response rating ([14]; 500 g ai/ha): 30; Foxtail, Giant plant response rating ([15]; 125 g ai/ha): 0; Foxtail, Giant plant response rating ([15]; 500 g ai/ha): 20; Blackgrass plant response rating ([16]; 125 g ai/ha): 0; Blackgrass plant response rating ([16]; 500 g ai/ha): 0; Ryegrass, Italian plant response rating ([17]; 125 g ai/ha): 0; Ryegrass, Italian plant response rating ([17]; 500 g ai/ha): 0; Rice plant response rating (0 to 100 scale) [18]: 10; Ducksalad plant response rating (0 to 100 scale) [19]: 60
4 | CC1=[N+]([O-])C(C(=O)Nc2cccc(F)c2F)C(c2ccc(Br)cn2)C1 (racemic) [Compound 66] | 35 | 0 | 0 | 0 | 0 | 0 | 0 | 10 | 70 | 0 | 0 | 0 | 20 | 0 | 0 | 0 | 0 | 0 | 0 | 0 | Wheat plant response rating ([11]; 500 g ai/ha): 0; Pigweed plant response rating ([12]; 125 g ai/ha): 0; Pigweed plant response rating ([12]; 500 g ai/ha): 0; Barnyardgrass plant response rating ([13]; 125 g ai/ha): 0; Barnyardgrass plant response rating ([13]; 500 g ai/ha): 0; Galium plant response rating ([14]; 125 g ai/ha): 0; Galium plant response rating ([14]; 500 g ai/ha): 0; Foxtail, Giant plant response rating ([15]; 125 g ai/ha): 0; Foxtail, Giant plant response rating ([15]; 500 g ai/ha): 0; Blackgrass plant response rating ([16]; 125 g ai/ha): 0; Blackgrass plant response rating ([16]; 500 g ai/ha): 0; Ryegrass, Italian plant response rating ([17]; 125 g ai/ha): 0; Ryegrass, Italian plant response rating ([17]; 500 g ai/ha): 0; Rice plant response rating (0 to 100 scale) [18]: 15; Ducksalad plant response rating (0 to 100 scale) [19]: 75
